From ChEMBL document CHEMBL5649167, “The SUV4-20 inhibitor A-196 verifies a role for epigenetics in genomic integrity” (Nat Chem Biol, 2017)
Active and inactive are the calls of the source. The calls are words filed in the database; no cut-off is given here.

Experiments:
Embryonic stem cell = assay: Antiproliferative activity against mouse Embryonic stem cell assessed as […] in H4K20me3 at 10 uM incubated for 3 days by immunofluorescence analysis; type: functional, cell-based; conditions: time 3.0 day
[1] = target: Substance-K receptor (Homo sapiens) (UniProt P21452); assay: Inhibition of human Substance-K receptor at 10 uM relative to control
[2] = target: Melatonin receptor type 1A (Homo sapiens) (UniProt P48039); assay: Inhibition of human Melatonin receptor type 1A at 10 uM relative to control
Melatonin receptor type 1A (Homo sapiens), sequence (P48039 whole entry): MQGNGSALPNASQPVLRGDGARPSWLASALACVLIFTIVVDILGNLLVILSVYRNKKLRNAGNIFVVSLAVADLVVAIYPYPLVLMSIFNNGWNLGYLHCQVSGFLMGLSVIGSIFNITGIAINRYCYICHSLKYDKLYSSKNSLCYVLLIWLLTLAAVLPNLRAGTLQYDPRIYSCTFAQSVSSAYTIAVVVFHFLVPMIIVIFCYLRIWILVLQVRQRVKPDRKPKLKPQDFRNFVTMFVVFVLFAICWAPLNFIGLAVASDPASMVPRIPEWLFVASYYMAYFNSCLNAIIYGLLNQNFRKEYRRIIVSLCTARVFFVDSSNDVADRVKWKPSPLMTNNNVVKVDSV

[3] = target: T1, Muscarinic acetylcholine receptor M2 (Homo sapiens) (UniProt P08172); assay: Inhibition of human Muscarinic acetylcholine receptor M2 at 10 uM relative to control
T1 sequence (whole entry): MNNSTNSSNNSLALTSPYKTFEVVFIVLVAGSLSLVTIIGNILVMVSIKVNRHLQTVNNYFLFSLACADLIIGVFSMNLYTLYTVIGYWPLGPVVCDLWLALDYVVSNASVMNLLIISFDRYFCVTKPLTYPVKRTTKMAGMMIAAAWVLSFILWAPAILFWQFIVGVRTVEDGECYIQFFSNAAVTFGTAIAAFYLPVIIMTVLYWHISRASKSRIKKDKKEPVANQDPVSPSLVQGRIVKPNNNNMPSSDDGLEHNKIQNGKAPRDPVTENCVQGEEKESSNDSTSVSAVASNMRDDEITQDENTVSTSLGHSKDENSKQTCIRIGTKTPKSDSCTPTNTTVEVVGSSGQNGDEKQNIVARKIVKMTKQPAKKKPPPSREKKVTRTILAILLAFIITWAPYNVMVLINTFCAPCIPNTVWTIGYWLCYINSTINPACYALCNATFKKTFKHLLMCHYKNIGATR

Homo sapiens = organism: Homo sapiens; assay: Inhibition of human Sodium channel site 2 at 10 uM relative to control
[4] = target: C-C chemokine receptor type 1 (Homo sapiens) (UniProt P32246); assay: Inhibition of human C-C chemokine receptor type 1 at 10 uM relative to control
C-C chemokine receptor type 1 (Homo sapiens), sequence (P32246 whole entry): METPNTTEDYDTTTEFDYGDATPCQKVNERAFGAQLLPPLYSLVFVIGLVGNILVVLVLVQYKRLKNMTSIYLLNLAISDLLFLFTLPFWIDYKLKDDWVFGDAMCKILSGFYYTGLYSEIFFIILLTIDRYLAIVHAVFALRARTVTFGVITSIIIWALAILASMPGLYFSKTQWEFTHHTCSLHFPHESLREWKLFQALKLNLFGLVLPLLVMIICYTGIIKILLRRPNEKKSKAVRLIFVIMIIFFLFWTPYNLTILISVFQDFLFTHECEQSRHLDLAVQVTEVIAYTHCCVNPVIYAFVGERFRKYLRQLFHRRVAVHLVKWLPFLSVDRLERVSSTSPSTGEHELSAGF

[5] = target: Sodium-dependent dopamine transporter (Homo sapiens) (UniProt Q01959); assay: Inhibition of human Sodium-dependent dopamine transporter at 10 uM relative to control
Sodium-dependent dopamine transporter (Homo sapiens), sequence (Q01959 whole entry): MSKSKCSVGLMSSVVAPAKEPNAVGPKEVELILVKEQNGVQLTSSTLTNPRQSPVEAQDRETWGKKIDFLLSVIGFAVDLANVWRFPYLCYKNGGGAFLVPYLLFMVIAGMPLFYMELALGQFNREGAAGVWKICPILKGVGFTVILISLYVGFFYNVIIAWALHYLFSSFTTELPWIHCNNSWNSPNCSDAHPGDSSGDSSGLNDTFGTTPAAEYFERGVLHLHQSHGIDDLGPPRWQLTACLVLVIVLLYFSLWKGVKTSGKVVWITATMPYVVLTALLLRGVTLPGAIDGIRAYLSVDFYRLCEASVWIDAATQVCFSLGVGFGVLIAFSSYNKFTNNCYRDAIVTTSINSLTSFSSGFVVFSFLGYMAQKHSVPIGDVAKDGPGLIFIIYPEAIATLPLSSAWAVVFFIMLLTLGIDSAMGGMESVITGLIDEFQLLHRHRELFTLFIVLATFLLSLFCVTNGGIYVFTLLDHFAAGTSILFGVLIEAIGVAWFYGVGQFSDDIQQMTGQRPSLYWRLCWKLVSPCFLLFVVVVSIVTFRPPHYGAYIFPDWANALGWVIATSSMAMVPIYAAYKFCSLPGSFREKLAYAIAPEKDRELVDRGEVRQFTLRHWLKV

[6] = target: 5-hydroxytryptamine receptor 5A (Homo sapiens) (UniProt P47898); assay: Inhibition of human 5-HT5a at 10 uM relative to control
5-hydroxytryptamine receptor 5A (Homo sapiens), sequence (P47898 whole entry): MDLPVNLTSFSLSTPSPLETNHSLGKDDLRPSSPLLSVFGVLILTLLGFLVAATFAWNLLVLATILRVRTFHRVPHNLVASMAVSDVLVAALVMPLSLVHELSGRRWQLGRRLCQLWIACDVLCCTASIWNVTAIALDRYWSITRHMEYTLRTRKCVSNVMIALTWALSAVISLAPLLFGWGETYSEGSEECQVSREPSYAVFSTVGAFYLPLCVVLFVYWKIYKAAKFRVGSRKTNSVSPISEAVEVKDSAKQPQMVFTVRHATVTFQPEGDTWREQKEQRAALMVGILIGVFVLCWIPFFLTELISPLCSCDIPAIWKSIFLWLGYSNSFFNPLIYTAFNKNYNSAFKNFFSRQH

[7] = target: Sodium-dependent serotonin transporter (Homo sapiens) (UniProt P31645); assay: Inhibition of human 5-HT transporter at 10 uM relative to control
[8] = target: Galanin receptor type 2 (Homo sapiens) (UniProt O43603); assay: Inhibition of human GAL2 at 10 uM relative to control
Rattus norvegicus = organism: Rattus norvegicus; assay: Inhibition of Rat Somatostatin at 10 uM relative to control
[9] = target: B2 bradykinin receptor (Homo sapiens) (UniProt P30411); assay: Inhibition of human BK-2 receptor at 10 uM relative to control
B2 bradykinin receptor (Homo sapiens), sequence (P30411 whole entry): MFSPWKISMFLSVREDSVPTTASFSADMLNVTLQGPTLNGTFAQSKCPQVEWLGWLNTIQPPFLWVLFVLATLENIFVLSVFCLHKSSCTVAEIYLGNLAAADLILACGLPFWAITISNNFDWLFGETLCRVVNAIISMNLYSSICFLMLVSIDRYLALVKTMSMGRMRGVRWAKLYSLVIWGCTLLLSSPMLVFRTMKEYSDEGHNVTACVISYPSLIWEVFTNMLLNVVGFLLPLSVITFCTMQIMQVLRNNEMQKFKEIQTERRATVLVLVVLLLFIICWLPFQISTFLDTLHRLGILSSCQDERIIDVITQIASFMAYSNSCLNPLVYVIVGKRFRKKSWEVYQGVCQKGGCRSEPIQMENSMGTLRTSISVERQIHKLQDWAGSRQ

[10] = target: 5-hydroxytryptamine receptor 6 (Homo sapiens) (UniProt P50406); assay: Inhibition of human 5-HT6 at 10 uM relative to control
5-hydroxytryptamine receptor 6 (Homo sapiens), sequence (P50406 whole entry): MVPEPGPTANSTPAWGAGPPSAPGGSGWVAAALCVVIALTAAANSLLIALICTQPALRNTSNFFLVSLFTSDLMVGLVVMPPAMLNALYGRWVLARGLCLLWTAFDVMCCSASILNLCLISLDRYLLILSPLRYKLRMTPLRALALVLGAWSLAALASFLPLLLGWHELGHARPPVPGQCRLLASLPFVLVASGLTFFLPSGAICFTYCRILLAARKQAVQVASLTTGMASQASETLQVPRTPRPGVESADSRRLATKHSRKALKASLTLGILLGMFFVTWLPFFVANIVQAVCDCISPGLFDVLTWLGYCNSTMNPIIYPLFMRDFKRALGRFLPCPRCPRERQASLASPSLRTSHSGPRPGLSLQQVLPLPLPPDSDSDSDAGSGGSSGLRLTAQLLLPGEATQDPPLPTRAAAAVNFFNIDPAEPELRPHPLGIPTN

[11] = target: Beta-1 adrenergic receptor (Homo sapiens) (UniProt P08588); assay: Inhibition of human Beta-1 adrenergic receptor expressed in Cricetulus griseus Flp-In-CHO cells at 10 uM relative to control; type: cell-based
[12] = target: Mu-type opioid receptor (Homo sapiens) (UniProt P35372); assay: Inhibition of human Mu-type opioid receptor expressed in stable HEK cells at 10 uM relative to control; type: cell-based
[13] = target: Delta-type opioid receptor (Homo sapiens) (UniProt P41143); assay: Inhibition of human Delta-type opioid receptor expressed in stable HEK cells at 10 uM relative to control; type: cell-based
Delta-type opioid receptor (Homo sapiens), sequence (P41143 whole entry): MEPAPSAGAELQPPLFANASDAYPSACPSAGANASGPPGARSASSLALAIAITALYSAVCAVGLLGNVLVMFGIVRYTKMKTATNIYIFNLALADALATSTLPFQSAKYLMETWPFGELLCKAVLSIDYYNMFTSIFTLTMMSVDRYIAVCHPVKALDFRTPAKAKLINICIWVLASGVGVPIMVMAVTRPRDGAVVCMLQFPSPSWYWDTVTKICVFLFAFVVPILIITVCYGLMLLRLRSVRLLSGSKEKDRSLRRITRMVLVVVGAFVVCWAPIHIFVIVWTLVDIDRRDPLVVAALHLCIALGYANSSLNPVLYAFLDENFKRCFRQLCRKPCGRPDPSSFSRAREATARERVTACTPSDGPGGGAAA

[14] = target: T2, 5-hydroxytryptamine receptor 1A (Homo sapiens) (UniProt P08908); assay: Inhibition of human 5-HT1A receptor expressed in stable […] cells at 10 uM relative to control; type: cell-based; conditions: HEK293T
T2 sequence (whole entry): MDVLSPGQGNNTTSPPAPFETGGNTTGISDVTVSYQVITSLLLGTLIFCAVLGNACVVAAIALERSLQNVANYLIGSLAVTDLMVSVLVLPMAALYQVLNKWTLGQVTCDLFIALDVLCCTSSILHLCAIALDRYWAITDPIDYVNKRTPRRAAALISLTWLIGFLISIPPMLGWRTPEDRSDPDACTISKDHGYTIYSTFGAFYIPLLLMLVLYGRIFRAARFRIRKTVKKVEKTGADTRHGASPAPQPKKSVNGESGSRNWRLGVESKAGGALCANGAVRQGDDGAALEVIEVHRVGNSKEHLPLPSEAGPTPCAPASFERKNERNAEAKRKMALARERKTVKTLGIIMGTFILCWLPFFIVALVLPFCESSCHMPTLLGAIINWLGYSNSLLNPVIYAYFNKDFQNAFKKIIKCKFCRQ

[15] = target: 5-hydroxytryptamine receptor 5A (Homo sapiens) (UniProt P47898); assay: Inhibition of human HTR5A expressed in Cricetulus griseus Flp-In-CHO cells at 10 uM relative to control; type: cell-based
[16] = target: T3, Muscarinic acetylcholine receptor M1 (Homo sapiens) (UniProt P11229); assay: Inhibition of human Muscarinic acetylcholine receptor M1 expressed in stable Cricetulus griseus CHO cells at 10 uM relative to control; type: cell-based
T3 sequence (whole entry): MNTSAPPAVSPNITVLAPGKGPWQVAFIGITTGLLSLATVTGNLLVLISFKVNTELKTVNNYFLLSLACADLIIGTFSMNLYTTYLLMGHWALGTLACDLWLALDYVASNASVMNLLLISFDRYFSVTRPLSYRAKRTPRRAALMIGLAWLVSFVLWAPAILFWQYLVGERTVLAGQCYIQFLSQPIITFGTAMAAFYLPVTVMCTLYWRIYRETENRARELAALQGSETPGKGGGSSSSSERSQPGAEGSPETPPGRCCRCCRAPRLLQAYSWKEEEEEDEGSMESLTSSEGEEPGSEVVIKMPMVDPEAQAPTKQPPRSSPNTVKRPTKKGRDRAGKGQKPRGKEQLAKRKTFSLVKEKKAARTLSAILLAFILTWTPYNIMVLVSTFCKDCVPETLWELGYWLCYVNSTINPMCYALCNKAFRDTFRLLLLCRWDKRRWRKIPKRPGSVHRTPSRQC

[17] = target: Sigma intracellular receptor 2 (Homo sapiens) (UniProt Q5BJF2); assay: Inhibition of human Sigma intracellular receptor 2 at 10 uM relative to control; type: cell-based
Sigma intracellular receptor 2 (Homo sapiens), sequence (Q5BJF2 whole entry): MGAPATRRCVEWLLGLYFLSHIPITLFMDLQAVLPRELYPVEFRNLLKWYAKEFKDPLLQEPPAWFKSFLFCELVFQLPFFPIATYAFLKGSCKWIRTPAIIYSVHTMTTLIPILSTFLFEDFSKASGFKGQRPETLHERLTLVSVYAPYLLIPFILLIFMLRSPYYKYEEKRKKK

[18] = target: D(4) dopamine receptor (Homo sapiens) (UniProt P21917); assay: Inhibition of human D(4) dopamine receptor in stable HEK cells at 10 uM relative to control; type: cell-based
D(4) dopamine receptor (Homo sapiens), sequence (P21917 whole entry): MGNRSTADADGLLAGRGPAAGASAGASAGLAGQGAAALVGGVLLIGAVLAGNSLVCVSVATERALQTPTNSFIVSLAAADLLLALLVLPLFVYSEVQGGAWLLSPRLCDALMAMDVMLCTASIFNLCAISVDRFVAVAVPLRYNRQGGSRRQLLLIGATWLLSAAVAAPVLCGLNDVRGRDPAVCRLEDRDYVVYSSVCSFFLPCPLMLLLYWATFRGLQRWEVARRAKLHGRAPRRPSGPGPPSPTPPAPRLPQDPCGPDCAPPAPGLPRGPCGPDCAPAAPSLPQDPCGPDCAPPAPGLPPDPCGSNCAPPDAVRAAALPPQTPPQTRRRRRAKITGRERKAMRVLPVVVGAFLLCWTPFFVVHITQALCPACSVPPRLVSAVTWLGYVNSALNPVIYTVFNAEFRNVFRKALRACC

[19] = target: Alpha-2C adrenergic receptor (Homo sapiens) (UniProt P18825); assay: Inhibition of human Alpha-2C adrenergic receptor in stable Canis lupus familiaris MDCK cells at 10 uM relative to control; type: cell-based
Alpha-2C adrenergic receptor (Homo sapiens), sequence (P18825 whole entry): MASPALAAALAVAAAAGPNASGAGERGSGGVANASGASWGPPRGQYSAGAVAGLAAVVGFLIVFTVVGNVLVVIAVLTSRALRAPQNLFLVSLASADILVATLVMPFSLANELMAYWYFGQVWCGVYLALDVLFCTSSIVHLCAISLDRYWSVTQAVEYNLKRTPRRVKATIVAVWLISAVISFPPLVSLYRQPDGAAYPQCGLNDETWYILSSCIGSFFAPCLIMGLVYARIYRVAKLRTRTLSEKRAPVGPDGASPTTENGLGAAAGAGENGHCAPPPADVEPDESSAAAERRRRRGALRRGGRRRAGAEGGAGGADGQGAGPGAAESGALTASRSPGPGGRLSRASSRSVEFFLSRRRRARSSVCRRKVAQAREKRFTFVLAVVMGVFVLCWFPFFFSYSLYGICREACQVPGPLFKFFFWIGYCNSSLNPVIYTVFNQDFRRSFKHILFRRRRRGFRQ

[20] = target: Alpha-1A adrenergic receptor (Homo sapiens) (UniProt P35348); assay: Inhibition of human Alpha-1A adrenergic receptor at 10 uM relative to control
Alpha-1A adrenergic receptor (Homo sapiens), sequence (P35348 whole entry): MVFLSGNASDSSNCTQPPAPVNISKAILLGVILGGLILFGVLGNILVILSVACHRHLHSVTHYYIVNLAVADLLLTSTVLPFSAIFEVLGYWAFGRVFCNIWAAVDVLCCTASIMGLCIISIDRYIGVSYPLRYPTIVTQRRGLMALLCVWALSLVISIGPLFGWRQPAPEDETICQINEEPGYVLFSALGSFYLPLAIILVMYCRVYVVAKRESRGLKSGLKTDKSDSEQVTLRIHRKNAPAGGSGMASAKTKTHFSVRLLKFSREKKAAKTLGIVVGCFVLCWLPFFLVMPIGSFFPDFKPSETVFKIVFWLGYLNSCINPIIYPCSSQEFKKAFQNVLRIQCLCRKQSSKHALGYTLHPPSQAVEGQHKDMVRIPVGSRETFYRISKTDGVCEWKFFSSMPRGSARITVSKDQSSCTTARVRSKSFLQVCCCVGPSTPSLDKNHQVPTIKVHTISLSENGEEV

[21] = target: Alpha-2A adrenergic receptor (Homo sapiens) (UniProt P08913); assay: Inhibition of human Alpha-2A adrenergic receptor in stable Canis lupus familiaris MDCK cells at 10 uM relative to control; type: cell-based
Alpha-2A adrenergic receptor (Homo sapiens), sequence (P08913 whole entry): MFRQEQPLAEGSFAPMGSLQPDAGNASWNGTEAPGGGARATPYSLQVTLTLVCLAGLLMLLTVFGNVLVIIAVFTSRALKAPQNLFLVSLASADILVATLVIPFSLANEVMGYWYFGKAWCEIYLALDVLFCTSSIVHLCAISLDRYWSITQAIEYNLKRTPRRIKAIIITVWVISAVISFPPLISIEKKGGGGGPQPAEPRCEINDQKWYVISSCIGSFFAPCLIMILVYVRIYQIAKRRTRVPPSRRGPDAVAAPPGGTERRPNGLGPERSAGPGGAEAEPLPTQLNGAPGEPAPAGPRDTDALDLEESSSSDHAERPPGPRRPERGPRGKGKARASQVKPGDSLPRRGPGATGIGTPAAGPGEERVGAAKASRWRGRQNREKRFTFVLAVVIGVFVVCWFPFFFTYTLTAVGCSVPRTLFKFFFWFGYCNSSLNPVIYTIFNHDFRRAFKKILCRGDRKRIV

| inhibition [1] [%] | inhibition [2] [%] | inhibition [3] [%] | inhibition (Homo sapiens) [%] | inhibition [4] [%] | inhibition [5] [%] | inhibition [6] [%] | inhibition [7] [%] | inhibition [8] [%] | inhibition (Rattus norvegicus) [%] | inhibition [9] [%] | inhibition [10] [%] | inhibition [11] [%] | inhibition [12] [%] | inhibition [13] [%] | inhibition [14] [%] | inhibition [15] [%] | inhibition [16] [%] | inhibition [17] [%] | Structure (SMILES) | Activity (Embryonic stem cell) | further results |
| --- | --- | --- | --- | --- | --- | --- | --- | --- | --- | --- | --- | --- | --- | --- | --- | --- | --- | --- | --- | --- | --- |
| 61 | 34 | 23 | 17 | 16 | 14 | 9 | 5 | 3 | 2 | 1 | -1 | 32 | 11 | 11 | 6 | 5 | 4 | 1 | Clc1cc2c(NC3CCCC3)nnc(-c3ccncc3)c2cc1Cl | Active | inhibition [18]: 1%; inhibition [19]: 0%; inhibition [20]: -3%; inhibition [21]: -6% |
| 53 | 17 | -2 | -5 | -3 | -1 | 2 | -7 | -8 | 5 | -4 | -4 | -4 | 22 | 8 | 12 | -1 | -8 | -1 | O=C(c1nnc(NC2CCCC2)c2cc(Cl)c(Cl)cc12)N1CCC(O)CC1 | inactive | inhibition [18]: -2%; inhibition [19]: 4%; inhibition [20]: -9%; inhibition [21]: 5% |
